Test results as given in patent publication US20100298141A1, “SUBSTITUTED PYRIDINE N-OXIDE HERBICIDES” (E. I. DU PONT DE NEMOURS AND COMPANY, priority 2007, published 2010).

Key:
[1] = tested on: prickly sida; assay: Test F preemergence test; type: in vivo, Sida spinosa; settings: scale 0 to 100
In short: (§1)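 Visual ratings relative to controls, taken after 14 to 21 days in a greenhouse. Test chemicals, formulated in a surfactant-containing non-phytotoxic solvent mixture, were applied preemergence to sown seeds or postemergence to sugarcane plants.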

[2] = tested on: crabgrass; assay: Test A pre-/postemergence greenhouse test; type: in vivo, Digitaria sanguinalis; settings: for Crabgrass, Large plant response rating: 0 to 100 scale
In short: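 Two application timings were run side by side in the greenhouse. Before emergence, compound went onto the soil surface of loam–sand pots as a directed spray; after emergence, plants at 2–10 cm and the one- to two-leaf stage were treated. Visual injury versus controls was rated at approximately day ten.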

[3] = tested on: bermudagrass; assay: Test F preemergence test; type: in vivo, Cynodon dactylon; settings: scale 0 to 100
In short: as §1

[4] = tested on: common ragweed; assay: Test F preemergence test; type: in vivo, Ambrosia elation; settings: scale 0 to 100
In short: as §1

[5] = tested on: kochia; assay: Test C pre-/postemergence test; type: in vivo, Kochia scoparia; settings: Preemergence
In short: (§2)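 Seeds were planted and treated preemergence with test chemical in a non-phytotoxic solvent mixture containing surfactant. Postemergence applications of the same formulation went onto plants 2 to 18 cm tall (1- to 4-leaf stage). A dash marks no test result.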

[6] = tested on: green foxtail; assay: Test F preemergence test; type: in vivo, Setaria viridis; settings: scale 0 to 100
In short: as §1

[7] = tested on: common ragweed; assay: Test C pre-/postemergence test; type: in vivo, Ambrosia elation; settings: Preemergence
In short: as §2

[8] = tested on: broadleaf signalgrass; assay: Test F preemergence test; type: in vivo, Brachiaria platyphylla; settings: scale 0 to 100
In short: as §1

[9] = tested on: naked crabgrass; assay: Test F preemergence test; type: in vivo, Digitaria nuda; settings: scale 0 to 100
In short: as §1

[10] = tested on: goosegrass; assay: Test F preemergence test; type: in vivo, Eleusine indica; settings: scale 0 to 100
In short: as §1

[11] = tested on: yellow nutsedge; assay: Test C pre-/postemergence test; type: in vivo, Cyperus esculentus; settings: Preemergence
In short: as §2

[12] = tested on: pitted morningglory; assay: Test F preemergence test; type: in vivo, Ipomoea lacunosa; settings: scale 0 to 100
In short: as §1

[13] = tested on: purple nutsedge; assay: Test F preemergence test; type: in vivo, Cyperus rotundus; settings: scale 0 to 100
In short: as §1

[14] = tested on: itchgrass; assay: Test F preemergence test; type: in vivo, Rottboellia cochinchinensis; settings: scale 0 to 100
In short: as §1

[15] = 31 g ai/ha, scale 0 to 100 (0 no effect, 100 complete control)

Cc1cc[n+]([O-])c(S(=O)(=O)C(Cl)c2c(C(F)(F)F)nn(C)c2Cl)c1 (racemic) [Compound 22]
20: Foxtail, Green plant response rating ([6]; 62 g ai/ha, Preemergence) | Morningglory plant response rating ([12]; 125 g ai/ha, preemergence)
40: Prickly Sida plant response rating ([1]; 62 g ai/ha, Preemergence) | Plant response rating, Prickly Sida ([1]; Preemergence, 31 g ai/ha) | Crabgrass, Large plant response rating ([2]; Postemergence, 125 g ai/ha, 0 is no effect, 100 is complete control) | Plant response rating, Crabgrass, Naked ([9]; Preemergence, 16 g ai/ha)
0: Plant response rating, Prickly Sida ([1]; Preemergence, 16 g ai/ha) | Plant response rating, Bermudagrass ([3]; Preemergence, 16 g ai/ha) | Plant response rating, Ragweed ([4]; Preemergence, 16 g ai/ha) | Plant response rating, Ragweed ([4]; Preemergence, 31 g ai/ha) | Kochia plant response rating ([5]; 62 g ai/ha, scale 0 to 100) | Plant response rating, Kochia [5, 15] | Plant response rating, Foxtail, Green ([6]; Preemergence, 16 g ai/ha) | Plant response rating, Ragweed [7, 15] | Morningglory plant response rating ([12]; 62 g ai/ha, Preemergence) | Plant response rating, Morningglory ([12]; Preemergence, 16 g ai/ha) | Plant response rating, Morningglory ([12]; Preemergence, 31 g ai/ha) | Plant response rating, Purple Nutsedge ([13]; Preemergence, 16 g ai/ha) | Itchgrass plant response rating ([14]; 62 g ai/ha, Preemergence) | Plant response rating, Itchgrass ([14]; Preemergence, 16 g ai/ha) | Plant response rating, Itchgrass ([14]; Preemergence, 31 g ai/ha)
100: Crabgrass, Naked plant response rating ([9]; 125 g ai/ha, preemergence)
90: Crabgrass, Large plant response rating ([2]; Preemergence, 125 g ai/ha, 0 no effect, 100 complete control) | Plant response rating, Crabgrass, Large ([2]; Preemergence, 500 g ai/ha, 0 to 100 scale where 0 is no effect and 100 is complete control) | Bermudagrass plant response rating ([3]; 125 g ai/ha, preemergence)
75: Plant response rating, Crabgrass, Naked ([9]; Preemergence, 31 g ai/ha)
35: Plant response rating, Bermudagrass ([3]; Preemergence, 31 g ai/ha)
65: Plant response rating, Goosegrass ([10]; Preemergence, 16 g ai/ha) | Plant response rating, Goosegrass ([10]; Preemergence, 31 g ai/ha)
50: Ragweed plant response rating ([4]; 62 g ai/ha, Preemergence) | Plant response rating, Signalgrass ([8]; Preemergence, 31 g ai/ha) | Plant response rating, Nutsedge, Yellow [11, 15] | Purple Nutsedge plant response rating ([13]; 62 g ai/ha, Preemergence)
60: Signalgrass plant response rating ([8]; 62 g ai/ha, Preemergence) | Nutsedge, Yellow plant response rating ([11]; 62 g ai/ha, scale 0 to 100) | Purple Nutsedge plant response rating ([13]; 125 g ai/ha, preemergence) | Itchgrass plant response rating ([14]; 125 g ai/ha, preemergence)
98: Goosegrass plant response rating ([10]; 125 g ai/ha, preemergence)
15: Plant response rating, Foxtail, Green ([6]; Preemergence, 31 g ai/ha) | Plant response rating, Purple Nutsedge ([13]; Preemergence, 31 g ai/ha)
95: Foxtail, Green plant response rating ([6]; 125 g ai/ha, preemergence)
80: Prickly Sida plant response rating ([1]; 125 g ai/ha, preemergence) | Crabgrass, Large plant response rating ([2]; Postemergence, 500 g ai/ha, 0 is no effect, 100 is complete control) | Bermudagrass plant response rating ([3]; 62 g ai/ha, Preemergence) | Ragweed plant response rating ([4]; 125 g ai/ha, preemergence) | Ragweed plant response rating ([7]; 62 g ai/ha, scale 0 to 100) | Signalgrass plant response rating ([8]; 125 g ai/ha, preemergence) | Crabgrass, Naked plant response rating ([9]; 62 g ai/ha, Preemergence) | Goosegrass plant response rating ([10]; 62 g ai/ha, Preemergence)
